pEC50: −log10 of the molar value. The source made the active and inactive calls.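 How the source made its calls: active means mean EC50 at or below 20 µM; inactive means the rest.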
Target: CHO-CHOP luciferase reporter, luminescence, UPR apoptotic arm
Experiment: CHOP reporter activation in CHO-CHOP cells, SAR follow-up, counter-screen for UPR adaptive arm activator project, cell-based, luciferase luminescence, set 2 (AID 588597)

SMILES	EC50	pEC50
O=C(Nc1cccc(Br)c1)c1cc(-c2ccncc2)nc2ccccc12	> 80 µM (inactive)	–
O=C(Nc1ccccc1Br)c1cc(-c2ccncc2)nc2ccccc12	> 80 µM (inactive)	–
O=C(Nc1ccc(Br)c(C(F)(F)F)c1)c1cc(-c2ccncc2)nc2ccccc12	inactive	–
Cc1cccc(NC(=O)c2cc(-c3ccncc3)nc3ccccc23)c1	> 80 µM (inactive)	–
O=C(Nc1cccc(F)c1)c1cc(-c2ccncc2)nc2ccccc12	> 80 µM (inactive)	–
O=C(Nc1cccc(Cl)c1)c1cc(-c2ccncc2)nc2ccccc12	> 80 µM (inactive)	–
COc1cccc(NC(=O)c2cc(-c3ccncc3)nc3ccccc23)c1	> 80 µM (inactive)	–
O=C(Nc1cc(F)ccc1F)c1cc(-c2ccncc2)nc2ccccc12	inactive	–
O=C(Nc1ccc(F)c(F)c1)c1cc(-c2ccncc2)nc2ccccc12	> 80 µM (inactive)	–
O=C(Nc1ccc(Cl)cc1)c1cc(-c2ccncc2)nc2ccccc12	–	5.13
Cc1cc(NC(=O)c2cc(-c3ccncc3)nc3ccccc23)ccc1Cl	> 80 µM (inactive)	–
O=C(Nc1cccc(F)c1Br)c1cc(-c2ccncc2)nc2ccccc12	> 80 µM (inactive)	–
Cc1ccc(NC(=O)c2cc(-c3ccncc3)nc3ccccc23)cc1	–	5.07
Cc1cc(NC(=O)c2cc(-c3ccncc3)nc3ccccc23)ccc1F	> 80 µM (inactive)	–
O=C(Nc1cccc(C(F)(F)F)c1)c1cc(-c2ccncc2)nc2ccccc12	> 80 µM (inactive)	–
Cc1cc(NC(=O)c2cc(-c3ccccc3)nc3ccccc23)ccc1Br	> 80 µM (inactive)	–
Cc1cc(Br)cc(NC(=O)c2cc(-c3ccncc3)nc3ccccc23)c1	inactive	–
O=C(Nc1ccc(C(F)(F)F)cc1)c1cc(-c2ccncc2)nc2ccccc12	–	5.70
O=C(Nc1ccc(F)cc1)c1cc(-c2ccncc2)nc2ccccc12	inactive	–
O=C(Nc1cccc(F)c1F)c1cc(-c2ccncc2)nc2ccccc12	> 80 µM (inactive)	–

— PubChem BioAssay AID588597 (Sanford-Burnham Center for Chemical Genomics, 2011)
